Test results published in patent US7109193B2, “Tricyclic diazepines tocolytic oxytocin receptor antagonists” (Wyeth, priority 2001, dated 2006).

Target: T1, human oxytocin receptor (Homo sapiens, UniProt P30559)
T1 construct: host or cells: CHO cells (pcDNA3.1 vector)
T1 sequence (P30559 1-389): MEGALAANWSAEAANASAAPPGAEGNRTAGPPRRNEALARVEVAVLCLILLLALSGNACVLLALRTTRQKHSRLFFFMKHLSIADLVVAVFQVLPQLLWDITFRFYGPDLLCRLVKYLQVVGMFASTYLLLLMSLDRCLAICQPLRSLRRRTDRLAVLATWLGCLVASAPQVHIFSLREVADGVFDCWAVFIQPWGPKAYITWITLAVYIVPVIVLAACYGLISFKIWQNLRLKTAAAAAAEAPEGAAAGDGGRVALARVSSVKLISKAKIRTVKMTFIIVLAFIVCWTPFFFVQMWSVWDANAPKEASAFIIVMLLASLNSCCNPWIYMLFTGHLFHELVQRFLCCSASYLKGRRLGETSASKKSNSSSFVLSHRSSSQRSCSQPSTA
Assay: Oxytocin binding in Chinese Hamster Ovary cell membranes expressing human oxytocin receptors
Conditions: 100 nM, CHO cell membranes, [3H]oxytocin, values without parentheses; for inhibition at 0.1 µM: read-out: OT % inhibition @ 100% nM

Compound | inhibition at 0.1 µM [%] | OT % inhibition @ 100% nM [%]
Cc1ccccc1-c1ccc(C(=O)N2Cc3ccc(C(=O)N4CCC(N5CCCCC5)CC4)n3Cc3ccccc32)cc1 [Example 115, {10-[(2′-Methyl[1,1′-biphenyl]-4-yl)carbonyl]-10,11-dihydro-5H-pyrrolo[2,1-c][1,4]benzodiazepin-3-yl}[4-(1-piperidinyl)-1-piperidinyl]methanone] | 25 | 
COc1cccc(-c2ccc(C(=O)N3Cc4ccc(C(=O)N5CCN(CCN(C)C)CC5)n4Cc4ccccc43)cc2C)c1 [Example 199, {4-[2-(Dimethylamino)ethyl]-1-piperazinyl{}10-[(3′-methoxy-2-methyl[1,1′-biphenyl]-4-yl)carbonyl]-10,11-dihydro-5H-pyrrolo[2,1-c][1,4]benzodiazepin-3-yl}methanone] |  | 84
Cc1ccccc1-c1ccc(C(=O)N2Cc3ccc(C(=O)NCCCn4ccnc4)n3Cc3ccccc32)cc1C [Example 124, 10-[(2,2′-Dimethyl[1,1′-biphenyl]-4-yl)carbonyl]-N-[3-(1H-imidazol-1-yl)propyl]-10,11-dihydro-5H-pyrrolo[2,1-c][1,4]benzodiazepine-3-carboxamide] | 60 | 
COc1ccccc1-c1ccc(C(=O)N2Cc3ccc(C(=O)N4CCC(N5CCCCC5)CC4)n3Cc3ccccc32)cc1OC [Example 119, {10-[(2,2′-Dimethoxy-[1,1′-biphenyl]-4-yl)carbonyl]-10,11-dihydro-5H-pyrrolo[2,1-c][1,4]benzodiazepin-3-yl}[4-(1-piperidinyl)-1-piperidinyl]methanone] | 58 | 
COc1cccc(-c2ccc(C(=O)N3Cc4ccc(C(=O)N5CCC(N6CCCCC6)CC5)n4Cc4ccccc43)cc2C)c1 [Example 114, {10-[(2-Methyl-3′-methoxy[1,1′-biphenyl]-4-yl)carbonyl]-10,11-dihydro-5H-pyrrolo[2,1-c][1,4]benzodiazepin-3-yl}[4-(1-piperidinyl)-1-piperidinyl]methanone] | 76 | 
COc1cc(C(=O)N2Cc3ccc(C(=O)N4CCC[C@H]4CN4CCCC4)n3Cc3ccccc32)ccc1-c1cccc2ccccc12 [Example 262, {10-[3-Methoxy-4-(1-naphthyl)benzoyl]-10,11-dihydro-5H-pyrrolo[2,1-c][1,4]benzodiazepin-3-yl}[(2S)-2-(1-pyrrolidinylmethyl)pyrrolidinyl]methanone] |  | 76
Cc1ccccc1-c1ccc(C(=O)N2Cc3ccc(C(=O)N4CC[C@@H](N(C)C)C4)n3Cc3ccccc32)cc1C [Example 274, [(3R)-3-(Dimethylamino)pyrrolidinyl]{10-[(2,2′-dimethyl[1,1′-biphenyl]-4-yl)carbonyl]-10,11-dihydro-5H-pyrrolo[2,1-c][1,4]benzodiazepin-3-yl}methanone] |  | 103
O=C(c1ccc2n1Cc1ccccc1N(C(=O)c1ccc(-c3cccc4ccccc34)cc1Cl)C2)N1CCC(N2CCCCC2)CC1 [Example 121] |  | 0
COc1cccc(-c2cc(OC)c(C(=O)N3Cc4ccc(C(=O)N5CCN(CCN6CCOCC6)CC5)n4Cc4ccccc43)cc2Cl)c1 [Example 212, {10-[(6-Chloro-3,3′-dimethoxy[1,1′-biphenyl]-4-yl)carbonyl]-10,11-dihydro-5H-pyrrolo[2,1-c][1,4]benzodiazepin-3-yl}{4-[2-(4-morpholinyl)ethyl]-1-piperazinyi}methanone] |  | 95
CN(C)[C@@H]1CCN(C(=O)c2ccc3n2Cc2ccccc2N(C(=O)c2ccc(-c4cccc5ccccc45)cc2Cl)C3)C1 [Example 277, {10-[2-Chloro-4-(1-naphthyl)benzoyl]-10,11-dihydro-5H-pyrrolo[2,1-c][1,4]benzodiazepin-3-yl}[(3R)-3-(dimethylamino)pyrrolidinyl]methanone] |  | 41

Continued, in another order:

inhibition at 0.1 µM [%] | Compound | OT % inhibition @ 100% nM [%]
43 | COc1cc(C(=O)N2Cc3ccc(C(=O)NCCCn4ccnc4)n3Cc3ccccc32)ccc1-c1ccccc1C [Example 128, N-[3-(1H-Imidazol-1-yl)propyl]-10-[(2-methoxy-2′-methyl[1,1′-biphenyl]-4-yl)carbonyl]-10,11-dihydro-5H-pyrrolo[2,1-c][1,4]benzodiazepine-3-carboxamide] | 
75 | COc1ccccc1-c1ccc(C(=O)N2Cc3ccc(C(=O)NCCN4CCCCC4)n3Cc3ccccc32)cc1C [Example 149, 10-[(2′-Methoxy-2-methyl[1,1′-biphenyl]-4-yl)carbonyl]-N-[2-(1-piperidinyl)ethyl]-10,11-dihydro-5H-pyrrolo[2,1-c][1,4]benzodiazepine-3-carboxamide] | 
33 | O=C(c1ccc2n1Cc1ccccc1N(C(=O)c1ccc(-c3cccc4ccccc34)cc1Cl)C2)N1CCC(N2CCCC2)CC1 [Example 147, {10-[2-Chloro-4-(1-naphthyl)benzoyl]-10,11-dihydro-5H-pyrrolo[2,1-c][1,4]benzodiazepin-3-yl}[4-(1-pyrrolidinyl)-1-piperidinyl]methanone] | 
76 | COc1cccc(-c2ccc(C(=O)N3Cc4ccc(C(=O)N5CCC(N6CCCC6)CC5)n4Cc4ccccc43)cc2C)c1 [Example 139, {10-[(3′-Methoxy-2-methyl[1,1′-biphenyl]-4-yl)carbonyl]-10,11-dihydro-5H-pyrrolo[2,1-c][1,4]benzodiazepin-3-yl}[4-(1-pyrrolidinyl)-1-piperidinyl]methanone] | 
46 | COc1cccc(-c2ccc(C(=O)N3Cc4ccc(C(=O)NCCCn5ccnc5)n4Cc4ccccc43)cc2OC)c1 [Example 133, 10-[(2,3′-Dimethoxy[1,1′-biphenyl]4-yl)carbonyl]-N-[3-(1H-imidazol-1-yl)propyl]-10,11-dihydro-5H-pyrrolo[2,1-c][1,4]benzodiazepine-3-carboxamide] | 
43 | COc1ccccc1-c1ccc(C(=O)N2Cc3ccc(C(=O)NCCCn4ccnc4)n3Cc3ccccc32)cc1 [Example 126, N-[3-(1H-Imidazol-1-yl)propyl]-10-[(2′-methoxy[1,1′-biphenyl]-4-yl)carbonyl]-10,11-dihydro-5H-pyrrolo[2,1-c][1,4]benzodiazepine-3-carboxamide] | 
31 | COc1ccccc1-c1ccc(C(=O)N2Cc3ccc(C(=O)NCCCn4ccnc4)n3Cc3ccccc32)cc1OC [Example 132, 10-[(2,2′-Dimethoxy[1,1′-biphenyl]-4-yl)carbonyl]-N-[3-(1H-imidazol-1-yl)propyl]-10,11-dihydro-5H-pyrrolo[2,1-c][1,4]benzodiazepine-3-carboxamide] | 
53 | COc1cc(C(=O)N2Cc3ccc(C(=O)N4CCC(N5CCCC5)CC4)n3Cc3ccccc32)ccc1-c1cccc2ccccc12 [Example 144, {10-[3-Methoxy-4-(1-naphthyl)benzoyl]-10,11-dihydro-5H-pyrrolo[2,1-c][1,4]benzodiazepin-3-yl}[4-(1-pyrrolidinyl)-1-piperidinyl]methanone] | 
87 | COc1ccccc1-c1ccc(C(=O)N2Cc3ccc(C(=O)N4CCC(N5CCCC5)CC4)n3Cc3ccccc32)cc1 [Example 140, {10-[(2′-Methoxy[1,1′-biphenyl]-4-yl)carbonyl]-10,11-dihydro-5H-pyrrolo[2,1-c][1,4]benzodiazepin-3-yl}[4-(1-pyrrolidinyl)-1-piperidinyl]methanone] | 
